According to the METLIN SMRT retention time set (Domingo-Almenara et al. 2019):

Test: gradient 5% acetonitrile 3 min, to 50% in 2 min, to 85% in 15 min, held 3 min, 100 µL/min
Conditions: column: Zorbax Extend-C18 2.1 x 50 mm; eluents: water / acetonitrile, 0.1% formic acid
Summary of the method: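 The system's dead and dwell volumes were 40 μL and 900 μL, with a Zorbax Extend-C18 column (2.1 × 50 mm, 1.8 μm) run at 100 μL/min in water and acetonitrile containing 0.1% formic acid each. Pure standards were analyzed in mixtures of ~100 molecules by HPLC–quadrupole time-of-flight mass spectrometry in positive and negative ionization mode. Retention time was assigned from computationally picked, manually inspected adduct peaks.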

| Compound | RP-LC retention time |
| --- | --- |
| O=C(NC1CCCCC1)C1CCCN(S(=O)(=O)c2c[nH]c(C(=O)N3CCCCCC3)c2)C1 (stereo not drawn) | 866 s |
| Cn1ncc2c(N3CCSCC3)nc(C(=O)NCCc3ccncc3)nc21 | 559 s |
| COc1cccc(S(=O)(=O)N2CCC(c3noc(-c4cnccn4)n3)C2)c1 (stereo not drawn) | 788 s |
| CCn1ccc(C(=O)NC)n1 | 566 s |
| c1ccc2cc(CC3=NCCN3)ccc2c1 | 649 s |
| CCOC(=O)c1c(Cc2ccc(Cl)cc2)c[nH]c1C | 1010 s |
| CNC(=O)c1ccc(N2C(=S)N(c3cnc(C#N)c(C(F)(F)F)c3)C(=O)C23CCC3)cc1F | 993 s |
| Cc1ccc(C(=O)Nc2nccnc2C(=O)NC2CCCCC2)cc1 | 1100 s |
| CN1C(=O)C(CC(=O)Nc2cccnc2)=C2CCCCC21 (stereo not drawn) | 564 s |
| COc1cc2nc(C(=O)N3CCCCC3)cc(Nc3ccc(Br)c(C)c3)c2cc1OC | 779 s |
| COCc1c(C(=O)O)nnn1-c1ccc(C)c(F)c1 | 741 s |
| Cn1c(=O)c2c(nc(Oc3ccccc3)n2C)n(C)c1=O | 807 s |
| O=C(NC1CCCCC1)c1nc(-c2ccnc(N3CCCCC3)c2)no1 | 804 s |
| Cc1noc(C)c1C1CCCN1C(=O)c1ccnn1C (stereo not drawn) | 638 s |
| CCC(C)C(=O)NC1CCN(C2=NS(=O)(=O)C(c3ccc(C(C)C)cc3)=C2C)CC1 (stereo not drawn) | 962 s |
| CCN(CC)S(=O)(=O)c1ccc2c(c1)N(CC(=O)N1CCN(C)CC1)C(=O)C1CCCCN21 (stereo not drawn) | 658 s |
| CC(C)c1nnc(-c2ccc(S(=O)(=O)N3CCN(C4CCCCC4)CC3)o2)o1 | 644 s |
| Cc1ccc(Cn2cc(C(=O)O)c(S(=O)(=O)N3CCSCC3)n2)cc1 | 861 s |

The remaining lines, values ahead:

| RP-LC retention time | Compound |
| --- | --- |
| 702 s | CCOc1ccc(-c2[nH]ncc2CNS(=O)(=O)c2ccc(NC(C)=O)cc2)cc1 |
| 825 s | O=C(NCCc1cccs1)c1nc(Nc2ccc(F)cc2)c2ccccc2n1 |
| 639 s | O=C(Cn1cnc2ccccc21)OCc1cc(-c2ccc3c(c2)OCO3)on1 |
| 666 s | CCN1CCN(C(=O)Nc2ccc(Br)cc2)c2cccnc21 |
| 1010 s | Cc1ccc(N2CC(c3nc(-c4ccc(Cl)cc4)no3)CC2=O)cc1 (stereo not drawn) |
| 1000 s | Cc1cccc(Oc2nccn3c(=O)n(CC(=O)NCCC4=CCCCC4)nc23)c1C |
| 741 s | c1ccc2c(c1)CC(N1CCN(c3cccc4c3OCCO4)CC1)C2 |
| 682 s | O=C(NCCc1ccccc1)N1CCCC(Cn2c(C3CC3)nc3cccnc32)C1 (stereo not drawn) |
| 825 s | CCCNC(=O)N1CCc2c(c(-c3nc(-c4ccccc4)no3)nn2C)C1 |
| 724 s | Cc1cc(Cl)ccc1NC(=O)N1CCCC1c1nncn1-c1ccccc1 (stereo not drawn) |
| 600 s | CCn1c(CC2CCN(C(=O)Nc3ccc(C)cc3)C2)nc2cccnc21 (stereo not drawn) |
| 981 s | O=C(NC1CCCC1)c1cccn1Cc1noc(-c2ccccc2)n1 |
| 645 s | COc1cccc2c1OC1(C)CC2NC(=O)N1c1cccc(C(=O)O)c1 (stereo not drawn) |
| 591 s | Cc1cc(NC(=O)Cc2csc(NC(=O)c3ncccn3)n2)no1 |
| 670 s | Cc1nnc(-c2ccc3ccn(CC(=O)Nc4ccccn4)c3c2)o1 |
| 1010 s | COc1ccc(C(=O)Nc2nc(-c3ccc([N+](=O)[O-])cc3)cs2)cc1OC |
| 875 s | O=C(CSc1nnc(-c2cccs2)o1)N1CCc2ccccc21 |
| 908 s | CSc1ncccc1C(=O)Nc1cccc(OCc2nnc(-c3ccccc3)o2)c1 |
| 772 s | CCn1c(C)c(CN2CCC(C(=O)NCc3cccc(Cl)c3)CC2)c2ccccc21 |
| 679 s | Cc1nnc(N2CCN(C(=O)Nc3ccc4c(c3)OCCO4)CC2)c2nn(-c3ccccc3)c(C)c12 |
